Article PMC7440915, “Discovery of surrogate agonists for visceral fat Treg cells that modulate metabolic indices in vivo” (eLife, 2020)
Entries after “also recorded” stand apart in the source; their conditions may differ. Where no end group is shown, it is not given here.

Assays:
vTreg53 Treg cells = test: RNA-seq of transferred clonotype^+ Treg cells after immunization; format: in vivo, mouse
From the text: Figure 5. Transcriptional analyses of vTreg53 Treg cells stimulated by Fat1562 in vivo. (A–C) CD45.2^+ vTreg53 Treg cells were transferred i.v. into CD45.1^+ B6 mice. 6 weeks later, the recipient mice were immunized with CFA alone or CFA/Fat1562 s.c., and one week later, boosted with IFA alone or IFA/Fat1562 i.p. CD45.2^+ clonotype^+ Treg cells were sorted from Spl/LNs or VAT of the recipient mice one week later for RNA-Seq. (A) Volcano plot comparing gene expression of transferred clonotype^+ Treg cells in the VAT and Spl/LNs of recipient mice immunized with adjuvant alone (left) or with adjuvant/Fat1562 (right). VAT-Treg signature genes are highlighted in red (induced) or blue (repressed). The number of genes from each signature preferentially expressed by one or the other population are shown at the top. (B) GSEA analysis of top KEGG pathways (p<0.05) that are enriched in cells activated by adjuvant/Fat1562 compared with adjuvant alone in VAT (left) or Spl/LN (right). NES, normalized enrichment score. FDR, false discovery rate. (C) Normalized reads of Pparg transcript in CD45.2^+ clonotype^+ Treg cells sorted from mice immunized with adjuvant alone or adjuvant/Fat1562. Data are mean ± SD. (D) Volcano plot comparing gene expression of transferred clonotype^+ Treg cells in mice immunized with adjuvant/Fat1562 and adjuvant alone in the VAT (left) and spleen (right). Representative transcripts are highlighted.
6–8 week-old B6.CD45.1^+ mice were transferred with Tg^+ Treg cells from Spl/LNs, and six weeks later were primed with 200 μg CFA/peptides s.c. and boosted with 100 μg IFA/peptides i.p. as described in the ‘Treg transfer and peptide immunization’ section. Biological replicates (n ≥ 2) of 1000 clonotype^+ CD45.2^+ Treg cells from the Spl/LNs or VAT of recipient mice were double-sorted by Moflo directly into 5ɥl lysis buffer (TCL Buffer (Qiagen) with 1% 2-Mercaptoethanol), Smart-seq2 libraries were prepared as previously described ([Picelli et al., 2014]) with slight modifications. Briefly, total RNA was captured and purified on RNAClean XP beads (Beckman Coulter). Polyadenylated mRNA was then selected using an anchored oligo(dT) primer (5′–[…]30VN-3) and converted to cDNA via reverse transcription. First-strand cDNA was subjected to limited PCR amplification followed by Tn5 transposon-based fragmentation using the Nextera XT DNA Library Preparation Kit (Illumina). Samples were then PCR amplified for 18 cycles using barcoded primers such that each sample carried a specific combination of eight-base Illumina P5 and P7 barcodes and were pooled together prior to Smart sequencing. Smart-seq paired-end sequencing was performed on an Illumina NextSeq500 using 2 × 38 bp reads with no further trimming. Transcripts were quantified by the Broad Technology Labs computational pipeline with Cuffquant version 2.2.1 ([Trapnell et al., 2012]). Normalized reads were further filtered by minimal expression (>10) and coefficient of variation (<0.7), and then analyzed by Multiplot Studio in the GenePattern software package. Pathway enrichment analysis was done using GSEA.

HFD-fed B6.CD45.1^+ mice = test: Metabolic indices (ITT, GTT, fasting insulin, body weight) in HFD-fed mice after vTreg53 Treg transfer and immunization; format: in vivo, mouse; conditions: n ≥ 7
From the text: Figure 7. Immunization with Fat1562 following vTreg53 Treg transfer ameliorates HFD-induced insulin resistance. (A–F) Metabolic indices of mice treated as in Figure 6A (n ≥ 7). (A) Body weight. (B) Insulin tolerance test (ITT). (C) Area over curve for ITT analysis. (D) Glucose tolerance test (GTT). (E) Area under curve for GTT analysis. (F) Plasma insulin levels after 6 hr of fasting. Data shown are representative of at least two independent experiments. (G) Scheme of the anti-TNFα experiment. (H) Number of total Treg cells in VAT (n ≥ 5). (I) Number of CD11c^hi inflammatory macrophages in VAT (n ≥ 5). (J) ITT (n ≥ 5). (K) Area over curve for ITT analysis (n ≥ 5). Data are mean ± SD. Figure 7—figure supplement 1. Absolute blood glucose levels. ITT analysis of mice transferred with vTreg53 TCR-tg Tregs and immunized with adjuvant/Fat1562 or adjuvant alone. Data shown are representative of at least two independent experiments (n ≥ 5). [drawing 7]
To assess early Treg proliferation following peptide stimulation in vivo, 0.4 million Treg cells were sorted from pooled Spl and LNs of 6-8wk-old male CD45.2^+ Tg^+ Foxp3-GFP^KI/y mice by Moflo, labeled by the CellTrace Violet dye (ThermoFisher Scientific), and were i.v.-injected into 6-8wk old male B6.CD45.1^+ mice. The next day, the recipient mice were injected with 200 µg peptides emulsified in CFA (CFA/peptides) s.c. on the lower back. Proliferation of clonotype^+ Tregs in the spleen was determined three days later. To examine the expansion of VAT-Treg cells by peptide immunization, we sorted 0.4 million Treg cells from pooled Spl/LNs of 6-8wk-old male CD45.2^+ Tg^+ Foxp3-GFP^KI/y mice and transferred them i.v. into 6-8wk old male B6.CD45.1^+ mice. Six weeks later, the recipient mice were immunized with 200 µg CFA/peptides s.c. on the lower back, and one week later were boosted with 100 μg IFA/peptides i.p. After another week, clonotype^+ CD45.2^+ Treg cells from the Spl/LNs or VAT of recipient mice were analyzed by flow cytometry and double-sorted for ultra-low-input RNA-seq. […] One week after the IFA/peptides injection, metabolic parameters (GTT, ITT, fasting plasma insulin levels) and the composition of different immunocytes were determined.
For GTT, mice were fasted for 15 hr overnight, weighed, and tested for fasting blood-glucose concentrations. […] Blood-glucose levels were measured before and 20, 40, 60, 90, and 120 min after glucose injection. […] Blood-glucose levels were measured before and 20, 40, 60, 90, and 120 min after insulin injection, and were normalized to the blood-glucose levels before insulin injection. The area under the curve (for GTT) or area over the curve (for ITT) were calculated using GraphPad Prism 7.0.

In the case of TMYKNPRPMAATG [Fat1562], the “Pparg mRNA levels in Spl/LN relative to VAT” value (vTreg53 Treg cells; Spl/LN vs Fat1562-stimulated VAT Treg cells) is reported as “substantially lower”, the “Pparg mRNA levels” value (vTreg53 Treg cells; Treg cells stimulated by Fat1562 in vivo (Spl/LN)) is reported as “significantly increased; also recorded: increase in Pparg mRNA levels” and the “Lag3 and Tigit expression” value (vTreg53 Treg cells; VAT, adjuvant/Fat1562 vs adjuvant alone) is reported as “upregulated”. For the same sequence, the “pathway enrichment in VAT Treg cells, GSEA” value (vTreg53 Treg cells; VAT, adjuvant/Fat1562 vs adjuvant alone: cell division and glycolysis) was “significant enrichment in pathways and transcripts related to cell division (E2F targets, G2M checkpoint, MYC targets, Mitotic spindle) and glycolysis”, the “VAT-Treg signature gene expression” value (vTreg53 Treg cells; clonotype^+ VAT Treg cells, adjuvant/Fat1562) was “preserved the typical VAT-Treg characteristics; also recorded: maintained the typical VAT-Treg signature” and the “cholesterol homeostasis genes” value (vTreg53 Treg cells; lymphoid organs, adjuvant/Fat1562 vs adjuvant alone (e.g. Pparg, Nfil3, Srebf2)) was “enrichment of genes involved in cholesterol homeostasis”. The “inflammatory cytokine response genes” value (vTreg53 Treg cells; lymphoid organs, adjuvant/Fat1562 vs adjuvant alone, IFNα, IFNγ, TNFα) was “increased expression of genes associated with responses to inflammatory cytokines (IFNα, IFNγ, and TNFα)”, the “glucose tolerance” value (HFD-fed B6.CD45.1^+ mice; GTT, 2.0 g glucose per kg i.p., 15 hr fast) was “promoted glucose tolerance” and the “insulin sensitivity” value (HFD-fed B6.CD45.1^+ mice; ITT, 0.6 U insulin per kg i.p., 6 hr fast) was “improved systemic insulin sensitivity”. For the same sequence, the “body weight” value (HFD-fed B6.CD45.1^+ mice; adjuvant/Fat1562 vs adjuvant alone) was “similar” and the “fasting plasma insulin levels” value (HFD-fed B6.CD45.1^+ mice; after 6 hr of fasting) was “reduced fasting plasma insulin levels”.
